From patent US20260191849A1, “PHARMACEUTICAL COMPOSITION FOR TREATMENT OF CANCER” (WIGEN BIOMEDICINE TECHNOLOGY (SHANGHAI) CO., LTD., priority 2022, published 2026)
Like-named read-outs stand apart in the source and are kept apart here.

Key:
Format in all cases: cell-based
SK-OV-3 cells = assay: Combined use of compound 257 or AMG650 with PLK1 inhibitor on SK-OV-3 cell viability, 168 h (Biological Example 21); conditions: 168 h; for IC50: Homo sapiens, SK-OV-3, 168 h, SK-OV-3 cells, read-out: IC50
Experimental: SK—OV-3 cells were seeded on a 384-well plate at 3000 cells/well. After overnight adherence culture, DMSO or compound 257 or AMG650 serially diluted in a 1:5 ratio from 400 nM and a PLK1 inhibitor with a specified concentration were added. The cell viability was assessed 168 h after dosing by measuring the intracellular ATP content. […] Furthermore, interactions between the drugs were also analyzed using the BLISS independence model, and the results are shown in FIG. 11 and FIG. 12.

HCT116 cells [1] = assay: Combined use of compound 257, AMG650 or Compound A with PLK1 inhibitor on HCT116 cell viability, 168 h (Biological Example 20)
Experimental: HCT116 cells were seeded on a 384-well plate at 3000 cells/well. After overnight adherence culture, DMSO or compound 257, AMG650, or Compound A serially diluted in a 1:5 ratio from 400 nM and a PLK1 inhibitor with a specified concentration were added. The cell viability was assessed 168 h after dosing by measuring the intracellular ATP content. The inhibition percentages of viable cells by the compounds were calculated by comparing with the DMSO group, and the IC50 values were also calculated.

HT29 cells [2] = assay: Combined use of compound 257 with Aurora B inhibitor on HT29 cell viability, 72 h (Biological Example 11); conditions: for IC50: Homo sapiens, HT-29, 72 h, HT29 cells
Experimental: HT29 cells were seeded on a 384-well plate at 3000 cells/well. After overnight adherence culture, DMSO or compound 257 serially diluted in a 1:5 ratio from 5 μM and an Aurora B inhibitor with a specified concentration were added. The cell viability was assessed 72 h after dosing by measuring the intracellular ATP content. The inhibition percentages of viable cells by the compounds were calculated by comparing with the DMSO group, and the IC50 values were also calculated.

HCT116 cells [3] = assay: Combined use of compound 257 or AMG650 with PLK1 inhibitor on HCT116 cell viability, 168 h (Biological Example 8)
Experimental: HCT116 cells were seeded on a 384-well plate at 3000 cells/well. After overnight adherence culture, DMSO or compound 257 or AMG650 serially diluted in a 1:5 ratio from 10 μM and a PLK1 inhibitor with a specified concentration were added. The cell viability was assessed 168 h after dosing by measuring the intracellular ATP content. The inhibition percentages of viable cells by the compounds were calculated by comparing with the DMSO group, and the IC50 values were also calculated.

HT29 cells [4] = assay: Combined use of compound 257, AMG650 or Compound A with PLK1 inhibitor on HT29 cell viability, 168 h (Biological Example 19); conditions: for IC50: Homo sapiens, HT-29, 168 h, HT29 cells, read-out: IC50
Experimental: HT29 cells were seeded on a 384-well plate at 3000 cells/well.

HT29 cells [5] = assay: Combined use of compound 257 or AMG650 with PLK1 inhibitor (Volasertib) on HT29 cell viability, 168 h (Biological Example 22); conditions: 168 h; for IC50: Homo sapiens, HT-29, 168 h, HT29 cells, read-out: IC50
Experimental: HT29 cells were seeded on a 384-well plate at 3000 cells/well. After overnight adherence culture, DMSO or compound 257 or AMG650 serially diluted in a 1:5 ratio from 400 nM and a PLK1 inhibitor with a specified concentration were added. The cell viability was assessed 168 h after dosing by measuring the intracellular ATP content. […] Furthermore, interactions between the drugs were also analyzed using the BLISS independence model, and the results are shown in FIG. 15 and FIG. 16.

HT29 cells [6] = assay: Combined use of compound 257 or AMG650 with PLK1 inhibitor on HT29 cell viability, 168 h (Biological Example 7); conditions: for Maximum inhibition rate / Minimum inhibition rate / IC50: HT29 cells; for IC50: Homo sapiens, HT-29, 168 h
Experimental: HT29 cells were seeded on a 384-well plate at 3000 cells/well. After overnight adherence culture, DMSO or compound 257 or AMG650 serially diluted in a 1:5 ratio from 400 nM and a PLK1 inhibitor with a specified concentration were added. The cell viability was assessed 168 h after dosing by measuring the intracellular ATP content. The inhibition percentages of viable cells by the compounds were calculated by comparing with the DMSO group, and the IC50 values were also calculated.

With `COc1ccc(NC(=O)c2ccc(NS(=O)(=O)CCO)cc2N2CCC3(CC2)CC3)nc1N1CCC(F)(F)CC1` [Compound 257] the “inhibitory effect on SK-OV-3 cells, combined use with the PLK1 inhibitor compared with monotherapy” value (SK-OV-3 cells; Volasertib, in words) was “stronger inhibitory effect”, the IC50 (SK-OV-3 cells; Volasertib 0.0001 nM) was 15.4 nM and the IC50 (SK-OV-3 cells; Volasertib 3.13 nM) was 12.8 nM. The IC50 (SK-OV-3 cells; Volasertib 6.25 nM) was 12.2 nM, the IC50 (SK-OV-3 cells; Volasertib 12.5 nM) was 8.7 nM and the IC50 (SK-OV-3 cells; Volasertib 25 nM) was 5.9 nM. For the same compound, the IC50 (SK-OV-3 cells; Volasertib 50 nM) was 2 nM, the “synergistic effect on HCT116 cell viability, combined use with the PLK1 inhibitor” value (HCT116 cells [1]; CYC140 or TAK-960, in words) was “no significant synergistic effect” and the IC50 (HCT116 cells [1]; HCT116 cells, CYC140 (Plogosertib) 1.6 nM) was greater than 400 nM. For the same compound, the IC50 (HCT116 cells [1]; HCT116 cells, CYC140 (Plogosertib) 8 nM) was greater than 400 nM, the IC50 (HCT116 cells [1]; HCT116 cells, CYC140 (Plogosertib) 40 nM) was greater than 400 nM and the IC50 (HCT116 cells [1]; HCT116 cells, TAK-960 0 nM) was greater than 400 nM. The IC50 (HCT116 cells [1]; HCT116 cells, TAK-960 1.6 nM) was greater than 400 nM, the IC50 (HCT116 cells [1]; HCT116 cells, TAK-960 8 nM) was greater than 400 nM and the IC50 (HCT116 cells [1]; HCT116 cells, TAK-960 40 nM) was greater than 400 nM. For the same compound, the IC50 (HCT116 cells [1]; Homo sapiens, HCT-116, HCT116 cells, CYC140 (Plogosertib) 0 nM) was greater than 400 nM, the “anti-proliferative activity against HCT116 cells, monotherapy” value (HCT116 cells [1]; in words) was “did not exhibit anti-proliferative activity” and the IC50 (HT29 cells [2]; Barasertib 0 nM) was 13.9 nM. The IC50 (HT29 cells [2]; Barasertib 20 nM) was 7.3 nM, the IC50 (HT29 cells [2]; Barasertib 100 nM) was 4.2 nM and the IC50 (HT29 cells [2]; Barasertib 500 nM) was 3.3 nM. For the same compound, the IC50 (HT29 cells [2]; SP-96 0 nM) was 14.5 nM, the IC50 (HT29 cells [2]; SP-96 20 nM) was 16.1 nM and the IC50 (HT29 cells [2]; SP-96 100 nM) was 14.5 nM. For the same compound, the IC50 (HT29 cells [2]; SP-96 500 nM) was 5.8 nM, the “inhibitory effect on HT-29 cells, combined use with the Aurora B inhibitor compared with monotherapy” value (HT29 cells [2]; in words) was “stronger inhibitory effect” and the IC50 (HCT116 cells [3]; HCT116 cells, Volasertib 3.12 nM) was greater than 10000 nM. The IC50 (HCT116 cells [3]; HCT116 cells, Volasertib 6.25 nM) was greater than 10000 nM, the IC50 (HCT116 cells [3]; Homo sapiens, HCT-116, HCT116 cells, Volasertib 0 nM) was greater than 10000 nM and the “synergistic effect on HCT116 cell viability, combined use with the PLK1 inhibitor” value (HCT116 cells [3]; Volasertib, in words) was “no significant synergistic effect”. For the same compound, the “inhibitory effect on HT-29 cells, combined use with the PLK1 inhibitor compared with monotherapy” value (HT29 cells [4]; CYC140 or TAK-960, in words) was “stronger inhibitory effect”, the IC50 (HT29 cells [4]; CYC140 (Plogosertib) 0.0001 nM) was 10.6 nM and the IC50 (HT29 cells [4]; CYC140 (Plogosertib) 1.6 nM) was 8.3 nM. For the same compound, the IC50 (HT29 cells [4]; CYC140 (Plogosertib) 8 nM) was 6.9 nM, the IC50 (HT29 cells [4]; CYC140 (Plogosertib) 40 nM) was 0.9 nM and the IC50 (HT29 cells [4]; TAK-960 0.0001 nM) was 10.1 nM. The IC50 (HT29 cells [4]; TAK-960 1.6 nM) was 8.5 nM, the IC50 (HT29 cells [4]; TAK-960 8 nM) was 1.7 nM and the IC50 (HT29 cells [4]; TAK-960 40 nM) was 1.7 nM. The “inhibitory effect on HT-29 cells, combined use with the PLK1 inhibitor compared with monotherapy” value (HT29 cells [5]; Volasertib, in words) was “stronger inhibitory effect”, the IC50 (HT29 cells [5]; Volasertib 0.0001 nM) was 10.9 nM and the IC50 (HT29 cells [5]; Volasertib 3.13 nM) was 7.9 nM. For the same compound, the IC50 (HT29 cells [5]; Volasertib 6.25 nM) was 5.9 nM, the IC50 (HT29 cells [5]; Volasertib 12.5 nM) was 2.5 nM and the IC50 (HT29 cells [5]; Volasertib 25 nM) was 0.4 nM. For the same compound, the Maximum inhibition rate (HT29 cells [6]; Volasertib 0 nM) was 85.3%, the Minimum inhibition rate (HT29 cells [6]; Volasertib 0 nM) was 3.2% and the Maximum inhibition rate (HT29 cells [6]; Volasertib 3.12 nM) was 94.6%. It also gave a Minimum inhibition rate (HT29 cells [6]; Volasertib 3.12 nM) of 1.8%, a Maximum inhibition rate (HT29 cells [6]; Volasertib 6.25 nM) of 94.4% and a Minimum inhibition rate (HT29 cells [6]; Volasertib 6.25 nM) of 0.5%. The IC50 (HT29 cells [6]; Volasertib 0 nM) was 14 nM, the IC50 (HT29 cells [6]; Volasertib 3.12 nM) was 7 nM and the IC50 (HT29 cells [6]; Volasertib 6.25 nM) was 2.8 nM. The “inhibitory effect on HT-29 cells, combined use with the PLK1 inhibitor compared with monotherapy” value (HT29 cells [6]; Volasertib, in words) was “stronger inhibitory effect”.
